Data as given in patent US9314046B2, “Flavor-improving method” (TAKASAGO INTERNATIONAL CORPORATION, priority 2011, dated 2016).

Assay: Evaluation of flavor-improving effects by addition of γ-aminobutyric acid and naringenin (sensory, 3 evaluators)
Type: in vivo
Design: key to Evaluation (grade): VP (very poor): worse than base; P (poor): difference from base not acknowledged, insufficient effects; G (good): different from base, favorable flavor; E (excellent): significantly different from base, very favorable flavor
Method: (1) Evaluation of Flavor-Improving Effects by Addition of γ-Aminobutyric Acid and Naringenin
To a base of a 0.05% aqueous solution of Rebaudio J-100, γ-aminobutyric acid (product name: 4-amino-n-butyric acid, produced by Nacalai Tesque, Inc.) and naringenin (product name: Naringenin, produced by LKT Laboratories, Inc.) were individually added in the amounts as described in the following table, and the flavor-improving effects thereof were evaluated.

[1] = naringenin alone 0.0010 ppb in base
[2] = naringenin alone 0.0100 ppb in base
[3] = naringenin alone 460.0000 ppb in base

## NCCCC(=O)O [GABA, γ-aminobutyric acid]
GABA alone 0.0100 ppb in base
  Evaluation (comment in words): Not different from base
  Evaluation (grade): P
GABA alone 0.1000 ppb in base
  Evaluation (comment in words): Not different from base
  Evaluation (grade): P
GABA alone 1.0000 ppb in base
  Evaluation (comment in words): Reduced total taste
  Evaluation (grade): P
GABA alone 10.0000 ppb in base
  Evaluation (grade): P
GABA alone 100.0000 ppb in base
  Evaluation (grade): P
GABA alone 500.0000 ppb in base
  Evaluation (grade): P
GABA alone 1000.0000 ppb in base
  Evaluation (grade): VP
GABA alone 10000.0000 ppb in base
  Evaluation (grade): VP

## O=C1C[C@@H](c2ccc(O)cc2)Oc2cc(O)cc(O)c21 [naringenin]
[1]
  Evaluation (comment in words): Not different from base
  Evaluation (grade): P
[2]
  Evaluation (comment in words): Not different from base
  Evaluation (grade): P
Naringenin alone 0.1000 ppb in base
  Evaluation (grade): P
Naringenin alone 1.0000 ppb in base
  Evaluation (grade): P
Naringenin alone 10.0000 ppb in base
  Evaluation (grade): P
[3]
  Evaluation (comment in words): Bitterness left in mouth
  Evaluation (grade): P
Naringenin alone 1000.0000 ppb in base
  Evaluation (grade): P
Naringenin alone 10000.0000 ppb in base
  Evaluation (grade): P
